In ChEMBL document CHEMBL5712891, “Inhibition of BET bromodomain-dependent XIAP and FLIP expression sensitizes KRAS-mutated NSCLC to pro-apoptotic agents” (Cell Death Dis, 2016):
Calls of active or inactive are those of the source. The calls are words filed in the database; no cut-off is given here.

What was measured:
NCI-H1373 [1] = assay: Induction of cell cycle arrest in human NCI-H1373 cells assessed as accumulation of cells at G0/G1 phase at 0.25 uM for 24 hrs by Click-iT EdU Alexa Fluor 647 flow cytometric assay kit analysis (reference value: 45%); format: functional
NCI-H460 [2] = assay: Induction of cell cycle arrest in human NCI-H460 cells assessed as accumulation of cells at G0/G1 phase at 0.1 uM for 24 hrs by Click-iT EdU Alexa Fluor 647 flow cytometric assay kit analysis (reference value: 45%); format: functional
NCI-H460 [3] = assay: Induction of cell cycle arrest in human NCI-H460 cells assessed as accumulation of cells at S phase at 0.1 uM for 24 hrs by Click-iT EdU Alexa Fluor 647 flow cytometric assay kit analysis (reference value: 54%); format: functional
NCI-H1373 [4] = assay: Induction of cell cycle arrest in human NCI-H1373 cells assessed as accumulation of cells at G0/G1 phase at 0.5 uM for 24 hrs by Click-iT EdU Alexa Fluor 647 flow cytometric assay kit analysis (reference value: 48%); format: functional
NCI-H1373 [5] = assay: Induction of apoptosis in human NCI-H1373 cells assessed as viable cells at 0.5 uM for 24 hrs by annexin V-PI staining based flow cytometric analysis (reference value: 77.7%); format: functional; settings: read-out: Activity
NCI-H2030 [6] = assay: Downregulation of XIAP protein expression level in human NCI-H2030 cells at 1 uM for 24 hrs by […] analysis; format: functional, cell-based
A549 [7] = assay: Induction of cell cycle arrest in human A549 cells assessed as accumulation of cells at G2/M phase at 0.1 uM for 24 hrs by Click-iT EdU Alexa Fluor 647 flow cytometric assay kit analysis (reference value: 3%); format: functional
A549 [8] = assay: Induction of TRAIL dependent apoptosis in human A549 cells by annexin V-PI staining based flow cytometric analysis; format: functional, cell-based
A549 [9] = assay: Downregulation of c-MYC mRNA expression level in human A549 cells at 0.1 to 1 uM for 24 hrs by qRT-PCR analysis; format: functional, cell-based; settings: dose 0.1-1 µM
A549 [10] = assay: Induction of cell cycle arrest in human A549 cells assessed as accumulation of cells at G2/M phase at 0.25 uM for 24 hrs by Click-iT EdU Alexa Fluor 647 flow cytometric assay kit analysis (reference value: 3%); format: functional
A549 [11] = assay: Induction of cell cycle arrest in human A549 cells assessed as accumulation of cells at G2/M phase at 1 uM for 24 hrs by Click-iT EdU Alexa Fluor 647 flow cytometric assay kit analysis (reference value: 3%); format: functional
NCI-H1373 [12] = assay: Induction of cell cycle arrest in human NCI-H1373 cells assessed as accumulation of cells at S phase at 1 uM for 24 hrs by DAPI staining analysis (reference value: 40%); format: functional
[13] = Toxicity in SCID mouse xenografted with human A549 cells assessed as body weight loss administered at 80 mg/kg, ip for 7 days along with cisplatin for 5 days follwed by compound treatment for 14 days relative to control; format: organism-based; settings: in vivo, 672 h, time 28 day
NCI-H1373 [14] = assay: Induction of cell cycle arrest in human NCI-H1373 cells assessed as accumulation of cells at G0/G1 phase at 0.25 uM for 24 hrs by Click-iT EdU Alexa Fluor 647 flow cytometric assay kit analysis (reference value: 40%); format: functional
NCI-H1373 [15] = assay: Induction of apoptosis in human NCI-H1373 cells assessed as early apoptotic cells at 0.5 uM for 24 hrs by annexin V-PI staining based flow cytometric analysis (reference value: 0.6%); format: functional
NCI-H460 [16] = assay: Downregulation of c-MYC protein expression level in human NCI-H460 cells at 1 uM for 24 hrs by […] analysis; format: functional, cell-based
A549 [17] = assay: Induction of apoptosis in human A549 cells assessed as late apoptotic cells at 0.5 uM for 24 hrs by annexin V-PI staining based flow cytometric analysis (reference value: 2.3%); format: functional
NCI-H1373 [18] = assay: Induction of TRAIL dependent apoptosis in human NCI-H1373 cells assessed as early apoptotic cells at 1 uM in presence of […] by annexin V-PI staining based flow cytometric analysis (reference value: 0.5%); format: functional
NCI-H23 = assay: Downregulation of XIAP mRNA expression level in human NCI-H23 cells at 0.1 to 1 uM for 24 hrs by qRT-PCR analysis; format: functional, cell-based; settings: dose 0.1-1 µM
NCI-H2030 [19] = assay: Downregulation of c-MYC protein level in human NCI-H2030 cells at 100 to 5000 nM upto 24 hrs by Western blot analysis; format: functional, cell-based; settings: dose 100-5000 nM
NCI-H460 [20] = assay: Downregulation of c-MYC mRNA expression level in human NCI-H460 cells at 0.1 to 1 uM for 24 hrs by qRT-PCR analysis; format: functional, cell-based; settings: dose 0.1-1 µM
SK-LU-1 = assay: Downregulation of XIAP protein expression level in human SK-LU-1 cells at 1 uM for 24 hrs by […] analysis; format: functional, cell-based
NCI-H2347 [21] = assay: Downregulation of FLIP mRNA expression level in human NCI-H2347 cells at 0.1 to 1 uM for 24 hrs by qRT-PCR analysis; format: functional, cell-based; settings: dose 0.1-1 µM
DV-90 [22] = assay: Downregulation of C-MYC mRNA expression level in human DV-90 cells at 0.1 to 1 uM for 24 hrs by qRT-PCR analysis; format: functional, cell-based; settings: dose 0.1-1 µM
A549 [23] = assay: Induction of apoptosis in human A549 cells assessed as late apoptotic cells at 1 uM in presenc of cisplatin by annexin V-PI based flow cytometric analysis (reference value: 2.5%); format: functional
[24] = Toxicity in SCID mouse xenografted with human A549 cells assessed as body weight loss administered at 50 mg/kg, ip for 28 days relative to control; format: organism-based; settings: in vivo, 672 h, time 28 day
NCI-H1373 [25] = assay: Induction of apoptosis in human NCI-H1373 cells assessed as early apoptotic cells at 2.5 uM for 24 hrs by annexin V-PI staining based flow cytometric analysis (reference value: 0.6%); format: functional
NCI-H2347 [26] = assay: Downregulation of c-MYC protein expression level in human NCI-H2347 cells at 1 uM for 24 hrs by […] analysis; format: functional, cell-based
NCI-H441 = assay: Downregulation of XIAP protein expression level in human NCI-H441 cells at 1 uM for 24 hrs by […] analysis; format: functional, cell-based
NCI-H1373 [27] = assay: Induction of apoptosis in human NCI-H1373 cells assessed as viable cells at 0.5 uM for 24 hrs by annexin V-PI staining based flow cytometric analysis (reference value: 71.6%); format: functional; settings: read-out: Activity
DV-90 [28] = assay: Induction of apoptosis in human DV-90 cells assessed as early apoptotic cells at 0.5 uM for 48 hrs by annexin V-PI staining based flow cytometric analysis (reference value: 1.0%)
NCI-H460 [29] = assay: Induction of apoptosis in human NCI-H460 cells assessed as early apoptotic cells at 0.5 uM for 24 hrs by annexin V-PI staining based flow cytometric analysis (reference value: 0.3%); format: functional
NCI-H460 [30] = assay: Induction of apoptosis in human NCI-H460 cells assessed as viable cells at 2.5 uM for 24 hrs by annexin V-PI staining based flow cytometric analysis (reference value: 92.8%); format: functional; settings: read-out: Activity

CCNC(=O)C[C@@H]1N=C(c2ccc(Cl)cc2)c2cc(OC)ccc2-n2c(C)nnc21 [MOLIBRESIB]
Activity (NCI-H1373 [1]): 49% | Activity (NCI-H460 [2]): 45% | Activity (NCI-H460 [3]): 53% | Activity (NCI-H1373 [4]): 73%

Cc1sc2c(c1C)C(c1ccc(Cl)cc1)=N[C@@H](CC(=O)OC(C)(C)C)c1nnc(C)n1-2
viability at 0.5 µM (NCI-H1373 [5]): 64.3% | Activity (NCI-H2030 [6]): Active | Activity (A549 [7]): 2% | Activity (A549 [8]): Active | Activity (A549 [9]): Active | Activity (A549 [10]): 3% | Activity (A549 [11]): 4% | Activity (NCI-H1373 [12]): 7% | T/C [13]: 10% | Activity (NCI-H1373 [14]): 60% | Activity (NCI-H1373 [15]): 2.5% | Activity (NCI-H460 [16]): Active | Activity (A549 [17]): 1.5% | Activity (NCI-H1373 [18]): 6.1% | Activity (NCI-H23): Active | Activity (NCI-H2030 [19]): inactive | Activity (NCI-H460 [20]): Active | Activity (SK-LU-1): Active | Activity (NCI-H2347 [21]): Active | Activity (DV-90 [22]): Active | Activity (A549 [23]): 28.5% | Activity [24]: 5% | Activity (NCI-H1373 [25]): 2.9% | Activity (NCI-H2347 [26]): Active | Activity (NCI-H441): Active

Cc1sc2c(c1C)C(c1ccc(Cl)cc1)=N[C@@H](CC(=O)Nc1ccc(O)cc1)c1nnc(C)n1-2 [BIRABRESIB]
viability at 0.5 µM (NCI-H1373 [27]): 67.4% | Activity (DV-90 [28]): 2.8% | Activity (NCI-H460 [29]): 0.2% | viability at 2.5 µM (NCI-H460 [30]): 90.4%
